Data reported in ChEMBL document CHEMBL1150699, “Characterization of an anti-tuberculosis resin glycoside from the prairie medicinal plant Ipomoea leptophylla” (2003).
Activity calls are given as the source filed them. No cut-off for these calls is given here.

System: Mycobacterium tuberculosis
Assay: Antitubercular activity against Mycobacterium tuberculosis H37Rv at 6.25 ug/ml by BACTEC 460 radiometric assay
Format: functional

`CCCCCCCCCCCC(=O)O[C@H]1[C@H](O[C@@H]2[C@@H](O)[C@H]3OC(=O)CCCCCCCCC[C@H](CCCCC)O[C@@H]4O[C@H](C)[C@H](O)[C@H](O)[C@H]4O[C@@H]3O[C@H]2C)O[C@@H](C)[C@H](O[C@@H]2O[C@@H](C)[C@H](OC(=O)CC)[C@@H](O)[C@H]2OC(=O)/C=C/c2ccccc2)[C@H]1O[C@@H]1O[C@H](CO)[C@@H](O)[C@H](O)[C@H]1O` showed an inhibition at 6.25 µg/mL of 13%.

`CCCCCCCCCCCC(=O)O[C@H]1[C@H](O[C@@H]2[C@@H](OC)[C@H]3OC(=O)CCCCCCCCC[C@H](CCCCC)O[C@@H]4O[C@H](C)[C@H](OC)[C@H](OC)[C@H]4O[C@@H]3O[C@H]2C)O[C@@H](C)[C@H](O[C@@H]2O[C@@H](C)[C@H](OC(=O)CC)[C@@H](OC)[C@H]2OC(=O)/C=C/c2ccccc2)[C@H]1O[C@@H]1O[C@H](COC)[C@@H](OC)[C@H](OC)[C@H]1OC` was tested, and the Activity was “inactive”.

With `CCCCC[C@@H](CCCCCCCCCC(=O)O)O[C@@H]1O[C@H](C)[C@H](O)[C@H](O)[C@H]1O[C@@H]1O[C@@H](C)[C@H](O[C@@H]2O[C@@H](C)[C@H](O[C@@H]3O[C@@H](C)[C@H](O)[C@@H](O)[C@H]3O)[C@@H](O)[C@H]2O[C@@H]2O[C@H](CO)[C@@H](O)[C@H](O)[C@H]2O)[C@@H](O)[C@H]1O` the Activity was “inactive”.

For `CCCCCCCCCCCC(=O)O[C@H]1[C@H](O[C@@H]2[C@@H](O)[C@H]3OC(=O)CCCCCCCCC[C@H](CCCCC)O[C@@H]4O[C@H](C)[C@H](O)[C@H](O)[C@H]4O[C@@H]3O[C@H]2C)O[C@@H](C)[C@H](O[C@@H]2O[C@@H](C)[C@H](OC(=O)CC)[C@@H](O)[C@H]2O)[C@H]1O[C@@H]1O[C@H](CO)[C@@H](O)[C@H](O)[C@H]1O`, the Activity was “inactive”.
